As a reminder, the IC50 is the concentration that gives 50% inhibition. A higher IC50 goes with weaker potency.

The subject of one series is C57BL6 mice. The note with it: relative to wortmannin as 1.0; for Liver toxicity relative to wortmannic: mean percent increase in serum ALT and AST at the MTD or highest dose tested; for Lymphocyte toxicity relative to wortmannin: percent decrease in lymphocyte counts at the MTD or highest dose tested. The source says: (§1) Highlighted are the compounds being made for antitumor testing.

Series [1] addresses phosphatidylinositol-3-kinase. Kind of series: PI-3 kinase inhibition. In kind it is biochemical.
Source text: as §1

For `COC[C@H]1OC(=O)/C(=C/NC(C)C(=O)O)C2=C(O)C(=O)C3=C([C@H](OC(C)=O)C[C@]4(C)C(=O)CC[C@@H]34)[C@]21C` (stereo partly drawn) [DJM2-177], in the series on C57BL6 mice, the “Liver toxicity relative to wortmannic” value is listed as 0.2 and the “Lymphocyte toxicity relative to wortmannin” value is reported as 2.0.

Molecule `COC[C@H]1OC(=O)c2coc3c2[C@@]1(C)C1=C(C3=O)[C@@H]2CCC(=O)[C@@]2(C)C[C@H]1OC(C)=O` [wortmannin] showed a 50% inhibitory concentration (IC50) in series [1] of 0.3 nM.

`COC[C@H]1OC(=O)/C(=C/NCC(N)=O)C2=C(O)C(=O)C3=C([C@H](OC(C)=O)C[C@]4(C)C(=O)CC[C@@H]34)[C@]21C` [DJM2-190]: the “Lymphocyte toxicity relative to wortmannin” value in the series with C57BL6 mice stood at 0.6.

In the case of `COC[C@H]1OC(=O)/C(=C/SCc2ccccc2)C2=C(O)C(=O)C3=C([C@H](OC(C)=O)C[C@]4(C)C(=O)CC[C@@H]34)[C@]21C` [DJM2-170], in the series on C57BL6 mice, the “Liver toxicity relative to wortmannic” value was determined as 1.7 and the “Lymphocyte toxicity relative to wortmannin” value was 1.1.

The values above are taken from patent publication EP1914230B1 (The Arizona Board of Regents on behalf of the University of …, priority 2001, dated 2003).
